One experiment has as its system HCT116 cells. Briefly: Activity of inhibiting cell growth, HCT116 (sulforhodamine B). Format: cell-based. The conditions noted are these: Homo sapiens, HCT-116, 72 h, cell growth inhibition, 3 days incubation. The protocol:
(§1) Activity of Inhibiting Cell Growth
(§2) • (1) Method of cell culture
(§3) Clinical separative cancer cells HCT116 were cultured in Dulbecco′ modified Eagle's medium with 10% Fetal Bovine Serum, and clinical separative cancer cells MKN-1 were cultured in RPMI1640 medium added 10% Fetal Bovine Serum. Both cells were cultured at 37° C., under 5% CO2 and saturated steam. • (2) Determination of activity of inhibiting cell growth
(§4) The activity of inhibiting cell growth was measured using the modified method of Skehan's method (J. Natl. Cancer Inst. Vol.82, p.1107-1112, 1990), and so on. One hundred μL each of the culture medium containing 1×10^3 HCT116 or MKN-1 as living cells was pipetted to 96-well dish and cultured over night. […] Then, the diluted compounds or DMSO as the control, was added to the medium. One hundred μL of the medium added with the diluted drug solutions or DMSO was added to the cells cultured in 96-well dish, and was incubated for further 3 days.
(§5) To each well, 50 μL of trichloroacetic acid (50%) was added to fix the cells. The cells were stained using 0.4% sulforhodamine B. Sulforhodamine B was extracted with 10 mM tris buffer, and the optical density at 560 nm was compared with that of control at 450 nm.

The test system of another experiment is MKN-1 cells. Briefly: Activity of inhibiting cell growth, MKN-1 (sulforhodamine B). It is filed as cell-based. The conditions noted are these: Homo sapiens, MKN-1, 72 h, cell growth inhibition, 3 days incubation. The method, then:
as §1, §2, §3, §4, §5

In another experiment the target is T1, cyclin D3-Cdk6 (Homo sapiens, UniProt Q00534).
T1 construct: made in house; host or cells: Sf9 insect cells, baculovirus co-infection
T1 sequence (Q00534 whole entry): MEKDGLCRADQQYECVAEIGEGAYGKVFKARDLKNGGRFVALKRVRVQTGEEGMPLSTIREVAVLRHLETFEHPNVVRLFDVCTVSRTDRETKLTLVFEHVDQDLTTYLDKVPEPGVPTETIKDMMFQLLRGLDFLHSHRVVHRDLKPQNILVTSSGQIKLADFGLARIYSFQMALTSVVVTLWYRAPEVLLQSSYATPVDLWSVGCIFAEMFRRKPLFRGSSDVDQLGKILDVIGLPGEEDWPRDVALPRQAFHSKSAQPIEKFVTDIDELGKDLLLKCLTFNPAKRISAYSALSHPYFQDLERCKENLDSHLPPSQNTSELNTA
T1 sequence (P30281 whole entry partner): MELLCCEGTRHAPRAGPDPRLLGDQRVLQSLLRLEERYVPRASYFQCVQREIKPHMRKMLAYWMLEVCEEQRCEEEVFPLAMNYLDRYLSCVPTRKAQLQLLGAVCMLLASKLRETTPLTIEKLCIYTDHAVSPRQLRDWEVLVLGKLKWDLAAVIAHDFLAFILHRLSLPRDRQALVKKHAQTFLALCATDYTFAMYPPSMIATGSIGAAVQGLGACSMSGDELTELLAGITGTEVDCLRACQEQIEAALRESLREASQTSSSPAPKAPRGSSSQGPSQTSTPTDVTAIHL
The experiment can be described thus: Enzyme assay of cyclin D3-Cdk6 (33P-ATP phosphorylation of peptide substrate). Format: biochemical. The conditions noted are these: 100 μM peptide substrate, 50 μM ATP, 30° C. From the text: • (1) Preparation of cyclin D1-Cdk6 and cyclin D3-Cdk6
As the same method of preparing cyclin D1-Cdk4, cDNA of Cdk6 and its activator cyclin D1 or D3 was recombined with baculovirus-expression vector to make recombinant baculovirus. This was co-infected to insect cell Sf9 to express an active complex of cyclin D1-Cdk6 or cyclin D3-Cdk6. The cells were recovered and solubilized and purified by HPLC columnchromatography. • (2) Enzyme assay of cyclin D1-Cdk6 and cyclin D3-Cdk6.
A peptide substrate used for cyclin D1-Cdk6 was synthetic peptide ([…] (SEQ ID No. 2) and that used for cyclin D3-Cdk6 was synthetic peptide ([…] (SEQ ID No. 3) (The EMBO J. vol. 15, p. 7060-7069, 1996).
The reaction was carried out using the modified procedure of Kitagawa's method (Oncogene, vol.7, p.1067-1074, 1992). The volume of the reaction solution was 21.1 μL. Purified cyclin D1-Cdk6 in R buffer and 400 μM peptide substrate or cyclin D3-Cdk6 and 100 μM pipetide substrate, unlabeled ATP (50 μM) and 1 μCi ATP labeled with γ-33P(2000-4000 Ci/mmole) were added to the reaction mixture. The mixture was incubated at 30° C. for 20 or 45 min. Then, 10 μL of phosphate buffer (350 mM) was added to stop the reaction. The peptide substrate was absorbed to P81 paper and its radioactivity was measured by a liquid scintillation counter. […]

The target of a further experiment is cyclin D2-Cdk4 (Homo sapiens, UniProt P11802). The experiment can be described thus: Enzyme assay of cyclin D2-Cdk4 (33P-ATP phosphorylation of RB peptide substrate). Format: biochemical. The conditions noted are these: Table 1, second value column (head repeats cyclin D1-Cdk4); 50 μM ATP, 100 μM peptide substrate, 30° C., 45 min.
cyclin D2-Cdk4, sequence (P11802 whole entry): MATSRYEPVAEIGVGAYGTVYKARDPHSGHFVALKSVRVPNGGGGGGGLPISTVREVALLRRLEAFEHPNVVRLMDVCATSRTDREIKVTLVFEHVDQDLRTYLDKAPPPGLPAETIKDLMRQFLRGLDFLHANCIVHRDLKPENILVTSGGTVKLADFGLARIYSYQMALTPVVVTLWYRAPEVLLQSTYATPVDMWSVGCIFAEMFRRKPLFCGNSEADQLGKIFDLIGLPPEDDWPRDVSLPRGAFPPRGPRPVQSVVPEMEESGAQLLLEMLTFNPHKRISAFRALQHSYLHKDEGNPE

Text for cyclin D2-Cdk4: • (1) Preparation of cyclin D1-Cdk4 and cyclin D2-Cdk4
cDNA of Cdk4 and its activator cyclin D1 or D2 was subcloned into a baculovirus-expression vector to make recombinant baculovirus and then, they are co-infected to insect cell Sf9 to express an active complex of cyclin D1-Cdk4 or cyclin D2-Cdk4. The cells were recovered and solubilized and purified by HPLC columnchromatography (The the enzyme are EMBO J. vol.15, p.7060-7069, 1996). • (2) Enzyme assay of cyclin D1-Cdk4 and cyclin D2-Cdk4
The reaction was carried out using the modified procedure of Kitagawa's method (Oncogene, vol.7, p.1067-1074, 1992). The volume of the reaction solution was 21.1 μL. The reaction buffer (R buffer) consisted of 20 mM Tri-HCl buffer (pH7.4)/10 mM MgCl2/4.5 mM 2-mercaptoethanol/1 mM ethyleneglycolbis(β-aminoethylether)-N,N,N′,N′-tetracetic acid (EGTA). Purified cyclin D1-Cdk4 or D2-Cdk4, 100 μM peptide substrate, 50 μM unlabeled ATP and ATP labeled with 1 μCi γ-33P(2000-4000 Ci/mmole) were added to the reaction mixture. The mixture was incubated at 30° C. for 45 min. 10 μL of phosphate buffer (350 mM) was added to stop the reaction. The peptide substrate was absorbed to P81 paper and its radioactivity was measured by a liquid scintillation counter. ATP labeled with γ-33P was purchased from Daiich Chemicals, Ltd. […]

As for `CN1CC[C@H](c2c(O)cc(O)c3c(=O)cc(-c4ccccc4Cl)oc23)[C@H](O)C1` (racemic) [(±)flavopiridol, flavopiridol], the results for the IC50 in the experiment with HCT116 cells and in the experiment on MKN-1 cells were 0.15 µM and 0.87 µM, respectively.

As for `O=C(Nc1cc(C2CCN(Cc3ccccc3)C2)ccn1)Nc1cccc2c1C1CCCN1C2=O` (stereo not shown) [Working Example No. 165, N′-(pyrrolidino[2,1-b]isoindolin-4-on-8-yl)-N-(4-(N-benzylpyrrolidin-3-yl)pyridin-2-yl)urea], the concentration for half-maximal inhibition (IC50) (in general, the concentration that inhibits the measured activity by half) against cyclin D3-Cdk6 worked out at 0.013 µM; on cyclin D2-Cdk4, 0.016 µM.

Values taken from patent publication US6958333B1, “Biarylurea derivatives” (Banyu Pharmaceutical Co., Ltd., priority 1999, dated 2005).
